Reference: patent publication US20240049725A1, “CO[…] OTHER IN[…] AND USES THEREOF” (SYNGENTA CROP PROTECTION AG, priority 2020, published 2024)
Positions of bridges follow the written chain, without caps; N, C: chain ends. Residues, ends and D or L forms follow the SMILES beside them.

How the values were obtained:
Cydia pomonella L1 = test: artificial diet test in 24-well plate, mortality of Cydia pomonella L1 larvae; format: in vivo; conditions: 10000 ppm; Table E; Abbott-corrected
Description: An artificial diet was prepared. 1.5 ml of artificial diet was applied in a well of a 24-well plate followed by 50 μl of test solution by spraying. The well-plate was infested with 1 L1 larva of Cydia pomonella per well, after which the plate was closed with a carton filter and a metal lid. The 24-well plate was placed in a climate chamber at a temperature of 25° C., a relative humidity of 65% and with no artificial light cycle. Five wells (replicates) were assessed per treatment.

Spodoptera littoralis L1 = test: leaf disc spray test on Gossypium hirsutum, mortality of Spodoptera littoralis L1 larvae; format: in vivo; conditions: 10000 ppm, Abbott-corrected
Description: (§1) Gossypium hirsutum leaf discs with a 5 cm diameter were cut out and placed in a Petri dish which was prepared with 3 filter paper and 800 μl water. 100 μl of test solution was applied on the lower surface by spraying and dried to air. Next, the leaf was flipped and 100 μl of test solution was applied on the upper surface by spraying and dried to air. The leaf was infested with 10 L1 larvae of Spodoptera littoralis, after which the dish was closed with a cotton filter and a plastic lid. The Petri dish was placed in a climate chamber at a temperature of 25° C., a relative humidity of 65% and with no artificial light cycle. Two days after infestation 200 μl water was added to the Petri dish. Four days after infestation 500 μl water was added to the Petri dish. Three Petri dishes were assessed per treatment.

[1] = tested on: larvae of Helicoverpa armigera; conditions: Jennings et al, 2005; cited from earlier work
Plutella xylostella L1 = test: leaf disc spray test on Brassica chinensis, mortality of Plutella xylostella L1 larvae; format: in vivo; conditions: Abbott-corrected
Description: as §1, with “Brassica chinensis leaf discs” for “Gossypium hirsutum leaf discs”, “The leaf 3 was infested” for “The leaf was infested”, “larvae of Plutella xylostella, after which” for “larvae of Spodoptera littoralis, after which”, “light cycle. Four days” for “light cycle. Two days after infestation 200 μl water was added to the Petri dish. Four days”, “after infestation 150 μl water” for “after infestation 500 μl water”

Plutella xylostella L3 = test: leaf disc spray test on Brassica chinensis, mortality of Plutella xylostella L3 larvae; format: in vivo; conditions: Abbott-corrected
Description: as §1, with “Brassica chinensis” for “Gossypium hirsutum”, “L3” for “L1”, “larvae (6-7 days old)” for “larvae”, “Plutella xylostella,” for “Spodoptera littoralis,”, “cycle.” for “cycle. Two days after infestation 200 μl water was added to the Petri dish.”, “150” for “500”

[2] = tested on: crustaceans, cockroaches, blow fly larvae and Helicoverpa armigera; conditions: in vivo; cited from earlier work

Compound: CC(C)C[C@@H]1NC(=O)CNC(=O)[C@H](CC(N)=O)NC(=O)[C@H](CCCNC(=N)N)NC(=O)[C@H]([C@@H](C)O)NC(=O)[C@@H]2CSSC[C@@H]3NC(=O)[C@H]([C@@H](C)O)NC(=O)CNC(=O)CNC(=O)[C@H](C(C)C)NC(=O)[C@@H]4CSSC[C@H](NC(=O)[C@H]([C@@H](C)O)NC(=O)[C@H](CSSC[C@H](NC(=O)[C@H](C(C)C)NC(=O)[C@@H]5CCCN5C1=O)C(=O)NCC(=O)N[C@@H](CCC(=O)O)C(=O)N[C@@H]([C@@H](C)O)C(=O)N4)NC(=O)CNC(=O)[C@@H]1CCCN1C(=O)[C@H]([C@@H](C)O)NC(=O)[C@H](CC(N)=O)NC3=O)C(=O)N[C@@H](CO)C(=O)N[C@@H](Cc1c[nH]c3ccccc13)C(=O)N1CCC[C@H]1C(=O)N[C@@H](C(C)C)C(=O)N2 [SEQ ID NO: 1 (kB1), Kalata B1]
- observed mortality of Cydia pomonella L1, 1 d after infestation (Cydia pomonella L1): 20%
- observed mortality of Cydia pomonella L1, 2 d after infestation (Cydia pomonella L1): 20%
- observed mortality of Cydia pomonella L1, 3 d after infestation (Cydia pomonella L1): 20%
- observed mortality of Cydia pomonella L1, 4 d after infestation (Cydia pomonella L1): 20%
- observed mortality of Cydia pomonella L1, 7 d after infestation (Cydia pomonella L1): 20%
- observed mortality of Spodoptera littoralis L1, 1 d after infestation (Spodoptera littoralis L1; Table A): 0%
- observed mortality of Spodoptera littoralis L1, 2 d after infestation (Spodoptera littoralis L1; Table A): 35%
- observed mortality of Spodoptera littoralis L1, 3 d after infestation (Spodoptera littoralis L1; Table A): 29%
- observed mortality of Spodoptera littoralis L1, 6 d after infestation (Spodoptera littoralis L1; Table A): 32%
- observed mortality of Spodoptera littoralis L1, 1 d after infestation (Spodoptera littoralis L1; Table G): 5%
- observed mortality of Spodoptera littoralis L1, 2 d after infestation (Spodoptera littoralis L1; Table G): 25%
- observed mortality of Spodoptera littoralis L1, 3 d after infestation (Spodoptera littoralis L1; Table G): 36%
- insecticidal activity against the larvae of Helicoverpa armigera [1]: potent insecticidal activity
- observed mortality of Plutella xylostella L1, 1 d after infestation (Plutella xylostella L1; 625 ppm, Table B1): 0%
- observed mortality of Plutella xylostella L1, 2 d after infestation (Plutella xylostella L1; 625 ppm, Table B1): 0%
- observed mortality of Plutella xylostella L1, 3 d after infestation (Plutella xylostella L1; 625 ppm, Table B1): 3%
- observed mortality of Plutella xylostella L1, 4 d after infestation (Plutella xylostella L1; 625 ppm, Table B1): 14%
- observed mortality of Plutella xylostella L1, 7 d after infestation (Plutella xylostella L1; 625 ppm, Table B1): 17%
- observed mortality of Plutella xylostella L1, 1 d after infestation (Plutella xylostella L1; 625 ppm, Table C): 0%
- observed mortality of Plutella xylostella L1, 2 d after infestation (Plutella xylostella L1; 625 ppm, Table C): 11%
- observed mortality of Plutella xylostella L1, 3 d after infestation (Plutella xylostella L1; 625 ppm, Table C): 9%
- observed mortality of Plutella xylostella L1, 4 d after infestation (Plutella xylostella L1; 625 ppm, Table C): 22%
- observed mortality of Plutella xylostella L1, 6 d after infestation (Plutella xylostella L1; 625 ppm, Table C): 20%
- observed mortality of Plutella xylostella L3, 1 d after infestation (Plutella xylostella L3; 2500 ppm, Table D): 0%
- observed mortality of Plutella xylostella L3, 2 d after infestation (Plutella xylostella L3; 2500 ppm, Table D): 0%
- observed mortality of Plutella xylostella L3, 3 d after infestation (Plutella xylostella L3; 2500 ppm, Table D): 3%
- observed mortality of Plutella xylostella L3, 4 d after infestation (Plutella xylostella L3; 2500 ppm, Table D): 20%
- observed mortality of Plutella xylostella L3, 1 d after infestation (Plutella xylostella L3; 5000 ppm, Table D): 0%
- observed mortality of Plutella xylostella L3, 2 d after infestation (Plutella xylostella L3; 5000 ppm, Table D): 0%
- observed mortality of Plutella xylostella L3, 3 d after infestation (Plutella xylostella L3; 5000 ppm, Table D): 3%
- observed mortality of Plutella xylostella L3, 4 d after infestation (Plutella xylostella L3; 5000 ppm, Table D): 37%
- observed mortality of Plutella xylostella L3, 1 d after infestation (Plutella xylostella L3; 5000 ppm, Table F): 0%
- observed mortality of Plutella xylostella L3, 2 d after infestation (Plutella xylostella L3; 5000 ppm, Table F): 0%
- observed mortality of Plutella xylostella L3, 3 d after infestation (Plutella xylostella L3; 5000 ppm, Table F): 22%

Compound: CC[C@H](C)[C@@H]1NC(=O)[C@@H]2CCCN2C(=O)[C@H](Cc2c[nH]c3ccccc23)NC(=O)[C@H]([C@@H](C)O)NC(=O)[C@@H]2CSSC[C@@H]3NC(=O)[C@H]([C@@H](C)O)NC(=O)[C@H](CCC(=O)O)NC(=O)CNC(=O)[C@@H]4CSSC[C@H](NC(=O)CNC(=O)[C@@H]5CCCN5C(=O)[C@H]([C@@H](C)O)NC(=O)[C@H](CC(N)=O)NC(=O)[C@H](CSSC[C@H](NC1=O)C(=O)N[C@@H]([C@@H](C)O)C(=O)N[C@@H](CCCNC(=N)N)C(=O)N[C@@H](CC(=O)O)C(=O)NCC(=O)N[C@@H](CC(C)C)C(=O)N1CCC[C@H]1C(=O)N[C@@H](C(C)C)C(=O)N4)NC(=O)[C@H]([C@@H](C)O)NC(=O)CNC(=O)CNC(=O)[C@H](Cc1ccccc1)NC3=O)C(=O)N[C@@H](CO)C(=O)N2 [SEQ ID NO: 2 (kB2), Kalata B2] (cyclo(CFGGTCNTPGCSCTWPICTRDGLPVCGET); disulfide 1-13, 6-18, 11-26 (inferred); ring closure inferred)
- insecticidal activity against the larvae of Helicoverpa armigera [1]: potent insecticidal activity
- observed mortality of Plutella xylostella L1, 1 d after infestation (Plutella xylostella L1; 157 ppm, Table B2): 0%
- observed mortality of Plutella xylostella L1, 2 d after infestation (Plutella xylostella L1; 157 ppm, Table B2): 0%
- observed mortality of Plutella xylostella L1, 3 d after infestation (Plutella xylostella L1; 157 ppm, Table B2): 0%
- observed mortality of Plutella xylostella L1, 4 d after infestation (Plutella xylostella L1; 157 ppm, Table B2): 0%
- observed mortality of Plutella xylostella L1, 7 d after infestation (Plutella xylostella L1; 157 ppm, Table B2): 0%
- observed mortality of Plutella xylostella L1, 1 d after infestation (Plutella xylostella L1; 625 ppm, Table C): 0%
- observed mortality of Plutella xylostella L1, 2 d after infestation (Plutella xylostella L1; 625 ppm, Table C): 0%
- observed mortality of Plutella xylostella L1, 3 d after infestation (Plutella xylostella L1; 625 ppm, Table C): 4%
- observed mortality of Plutella xylostella L1, 4 d after infestation (Plutella xylostella L1; 625 ppm, Table C): 4%
- observed mortality of Plutella xylostella L1, 6 d after infestation (Plutella xylostella L1; 625 ppm, Table C): 0%

Compound: CC(C)[C@H](NC(=O)[C@H](CCCCN)NC(=O)[C@@H]1CCCN1C(=O)CNC(=O)[C@H](CO)NC(=O)[C@@H]1CSSC[C@@H]2NC(=O)[C@@H]3CCCN3C(=O)[C@@H]3CSSC[C@H](NC(=O)CNC(=O)CNC(=O)[C@H](Cc4c[nH]c5ccccc45)NC(=O)[C@H](Cc4ccc(O)cc4)NC2=O)C(=O)N2CCC[C@H]2C(=O)N[C@@H](Cc2c[nH]c4ccccc24)C(=O)NCC(=O)N[C@@H](CCC(N)=O)C(=O)N[C@@H](CC(N)=O)C(=O)N[C@@H](CSSC[C@H](NC(=O)[C@H](CO)NC(=O)[C@@H](N)CCCNC(=N)N)C(=O)N3)C(=O)N[C@@H](Cc2ccc(O)cc2)C(=O)N2CCC[C@H]2C(=O)N[C@@H](CCC(=O)O)C(=O)NCC(=O)N1)C(=O)O [SEQ ID NO: 4 (Av3), Av3]
- toxicity to crustaceans, cockroaches, blow fly larvae and Helicoverpa armigera [2]: toxic

Compound: CC(C)C[C@@H]1NC(=O)CNC(=O)[C@H](CC(N)=O)NC(=O)[C@H](CCCNC(=N)N)NC(=O)[C@H]([C@@H](C)O)NC(=O)[C@@H]2CSSC[C@@H]3NC(=O)[C@H]([C@@H](C)O)NC(=O)CNC(=O)CNC(=O)[C@H](C(C)C)NC(=O)[C@@H]4CSSC[C@H](NC(=O)[C@H]([C@@H](C)O)NC(=O)[C@H](CSSC[C@H](NC(=O)[C@H](C(C)C)NC(=O)[C@@H]5CCCN5C1=O)C(=O)NCC(=O)N[C@@H](CCC(=O)O)C(=O)N[C@@H]([C@@H](C)O)C(=O)N4)NC(=O)CNC(=O)[C@@H]1CCCN1C(=O)[C@H]([C@@H](C)O)NC(=O)[C@H](CC(N)=O)NC3=O)C(=O)N[C@@H](CO)C(=O)N[C@@H](Cc1c[nH]c3ccccc13)C(=O)N1CCC[C@H]1C(=O)N[C@@H](CCCCN)C(=O)N2 [SEQ ID NO: 6 (kB1[V25K]), Mutated kB1 (kB1[V25K])] (cyclo(CGETCVGGTCNTPGCTCSWPKCTRNGLPV); disulfide 1-15, 5-17, 10-22 (inferred); ring closure inferred)
- observed mortality of Plutella xylostella L1, 1 d after infestation (Plutella xylostella L1; 625 ppm, Table C): 0%
- observed mortality of Plutella xylostella L1, 2 d after infestation (Plutella xylostella L1; 625 ppm, Table C): 0%
- observed mortality of Plutella xylostella L1, 3 d after infestation (Plutella xylostella L1; 625 ppm, Table C): 0%
- observed mortality of Plutella xylostella L1, 4 d after infestation (Plutella xylostella L1; 625 ppm, Table C): 0%
- observed mortality of Plutella xylostella L1, 6 d after infestation (Plutella xylostella L1; 625 ppm, Table C): 0%
